Results reported in PubChem BioAssay (NCI).
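Values below derive from 48-hour exposures of cells grown in 96-well plates, with endpoints linearly interpolated between the two concentrations bracketing the appropriate inhibition level. GI50 is the concentration that inhibits growth by half. TGI: total growth inhibition.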

Columns and labels:
Assay in all cases: NCI tumour cell line growth inhibition, 48 h
K-562 leukemia = tested on: K-562 leukemia
IGROV1 ovarian = tested on: IGROV1 ovarian
ACHN renal = tested on: ACHN renal
NCI-H522 lung = tested on: NCI-H522 lung
SK-MEL-28 melanoma = tested on: SK-MEL-28 melanoma
HS 578T breast = tested on: HS 578T breast
SNB-75 CNS = tested on: SNB-75 CNS
PC-3 prostate = tested on: PC-3 prostate
OVCAR-4 ovarian = tested on: OVCAR-4 ovarian
MDA-MB-231 breast = tested on: MDA-MB-231 breast
SK-OV-3 ovarian = tested on: SK-OV-3 ovarian
DU-145 prostate = tested on: DU-145 prostate
KM12 colon = tested on: KM12 colon
RXF 393 renal = tested on: RXF 393 renal
MCF7 breast = tested on: MCF7 breast
BT-549 breast = tested on: BT-549 breast
T-47D breast = tested on: T-47D breast
EKVX NSCLC = tested on: EKVX NSCLC
OVCAR-5 ovarian = tested on: OVCAR-5 ovarian
RPMI-8226 leukemia = tested on: RPMI-8226 leukemia
MALME-3M melanoma = tested on: MALME-3M melanoma
U251 CNS = tested on: U251 CNS
MOLT-4 leukemia = tested on: MOLT-4 leukemia
M14 melanoma = tested on: M14 melanoma
HL-60(TB) leukemia = tested on: HL-60(TB) leukemia
CCRF-CEM leukemia = tested on: CCRF-CEM leukemia
SF-268 CNS = tested on: SF-268 CNS
SF-539 CNS = tested on: SF-539 CNS
SN12C renal = tested on: SN12C renal
SK-MEL-5 melanoma = tested on: SK-MEL-5 melanoma
UACC-62 melanoma = tested on: UACC-62 melanoma
NCI-H226 lung = tested on: NCI-H226 lung
SR leukemia = tested on: SR leukemia
HOP-92 NSCLC = tested on: HOP-92 NSCLC
HCT-15 colon = tested on: HCT-15 colon
OVCAR-8 ovarian = tested on: OVCAR-8 ovarian
A549 NSCLC = tested on: A549 NSCLC
SK-MEL-2 melanoma = tested on: SK-MEL-2 melanoma
UO-31 renal = tested on: UO-31 renal
A498 renal = tested on: A498 renal
HCT-116 colon = tested on: HCT-116 colon
MDA-MB-435 = tested on: MDA-MB-435
SW-620 colon = tested on: SW-620 colon
NCI/ADR-RES ovarian = tested on: NCI/ADR-RES ovarian
NCI-H460 lung = tested on: NCI-H460 lung
HOP-62 NSCLC = tested on: HOP-62 NSCLC
HT29 colon = tested on: HT29 colon
TK-10 renal = tested on: TK-10 renal
COLO 205 colon = tested on: COLO 205 colon
SF-295 CNS = tested on: SF-295 CNS
OVCAR-3 ovarian = tested on: OVCAR-3 ovarian
HCC-2998 colon = tested on: HCC-2998 colon
CAKI-1 renal = tested on: CAKI-1 renal
NCI-H23 lung = tested on: NCI-H23 lung
UACC-257 melanoma = tested on: UACC-257 melanoma
SNB-19 CNS = tested on: SNB-19 CNS
786-0 renal = tested on: 786-0 renal
LOX IMVI melanoma = tested on: LOX IMVI melanoma

CN(c1ccc(F)cc1)S(=O)(=O)c1ccc(-c2cnc(C3CC3)o2)cc1 was tested, and the GI50 (K-562 leukemia) was 39.5 nM, the TGI (K-562 leukemia) was > 43800 nM and the GI50 (IGROV1 ovarian) was 66 nM. The TGI (IGROV1 ovarian) was > 100000 nM, the GI50 (ACHN renal) was 274 nM and the TGI (ACHN renal) was > 73100 nM. The GI50 (NCI-H522 lung) was 78.9 nM, the TGI (NCI-H522 lung) was 1700 nM and the GI50 (SK-MEL-28 melanoma) was 2600 nM. The TGI (SK-MEL-28 melanoma) was > 100000 nM, the GI50 (HS 578T breast) was 176 nM and the TGI (HS 578T breast) was > 100000 nM. For the same compound, the GI50 (SNB-75 CNS) was 12.4 nM, the TGI (SNB-75 CNS) was 25800 nM and the GI50 (PC-3 prostate) was 136 nM. The TGI (PC-3 prostate) was > 67800 nM, the GI50 (OVCAR-4 ovarian) was 772 nM and the TGI (OVCAR-4 ovarian) was > 100000 nM. For the same compound, the GI50 (MDA-MB-231 breast) was 404 nM, the TGI (MDA-MB-231 breast) was > 39000 nM and the GI50 (SK-OV-3 ovarian) was 2520 nM. The TGI (SK-OV-3 ovarian) was > 94600 nM, the GI50 (DU-145 prostate) was 279 nM and the TGI (DU-145 prostate) was > 76700 nM. The GI50 (KM12 colon) was 54.5 nM, the TGI (KM12 colon) was 32200 nM and the GI50 (RXF 393 renal) was 69.8 nM. It also gave a TGI (RXF 393 renal) of 366 nM, a GI50 (MCF7 breast) of 39.6 nM and a TGI (MCF7 breast) of 50900 nM. It also gave a GI50 (BT-549 breast) of 410 nM, a TGI (BT-549 breast) of 14100 nM and a GI50 (T-47D breast) of 75.9 nM. For the same compound, the TGI (T-47D breast) was 71300 nM, the GI50 (EKVX NSCLC) was 289 nM and the TGI (EKVX NSCLC) was > 100000 nM. The GI50 (OVCAR-5 ovarian) was 495 nM, the TGI (OVCAR-5 ovarian) was > 100000 nM and the GI50 (RPMI-8226 leukemia) was 60.6 nM. It also gave a TGI (RPMI-8226 leukemia) of 2510 nM, a GI50 (MALME-3M melanoma) of 11600 nM and a TGI (MALME-3M melanoma) of 47600 nM. For the same compound, the GI50 (U251 CNS) was 69.4 nM, the TGI (U251 CNS) was > 39100 nM and the GI50 (MOLT-4 leukemia) was 80.6 nM. For the same compound, the TGI (MOLT-4 leukemia) was > 37500 nM, the GI50 (M14 melanoma) was 52 nM and the TGI (M14 melanoma) was 19800 nM. For the same compound, the GI50 (HL-60(TB) leukemia) was 28.8 nM, the TGI (HL-60(TB) leukemia) was 306 nM and the GI50 (CCRF-CEM leukemia) was 51.8 nM. The TGI (CCRF-CEM leukemia) was > 100000 nM, the GI50 (SF-268 CNS) was 1120 nM and the TGI (SF-268 CNS) was > 100000 nM. For the same compound, the GI50 (SF-539 CNS) was 71.8 nM, the TGI (SF-539 CNS) was 1870 nM and the GI50 (SN12C renal) was 887 nM. It also gave a TGI (SN12C renal) of 39100 nM, a GI50 (SK-MEL-5 melanoma) of 84.2 nM and a TGI (SK-MEL-5 melanoma) of 5920 nM. For the same compound, the GI50 (UACC-62 melanoma) was 48.1 nM, the TGI (UACC-62 melanoma) was 19500 nM and the GI50 (NCI-H226 lung) was 239 nM. For the same compound, the TGI (NCI-H226 lung) was 30800 nM, the GI50 (SR leukemia) was 31.5 nM and the GI50 (HOP-92 NSCLC) was 1210 nM. For the same compound, the TGI (HOP-92 NSCLC) was 11300 nM, the GI50 (HCT-15 colon) was 49.9 nM and the TGI (HCT-15 colon) was > 50000 nM. For the same compound, the GI50 (OVCAR-8 ovarian) was 553 nM, the TGI (OVCAR-8 ovarian) was > 100000 nM and the GI50 (A549 NSCLC) was 180 nM. The TGI (A549 NSCLC) was > 100000 nM, the GI50 (SK-MEL-2 melanoma) was 3740 nM and the TGI (SK-MEL-2 melanoma) was 40900 nM. For the same compound, the GI50 (UO-31 renal) was 766 nM, the TGI (UO-31 renal) was > 94100 nM and the GI50 (A498 renal) was 43 nM. The TGI (A498 renal) was 493 nM, the GI50 (HCT-116 colon) was 41.3 nM and the GI50 (MDA-MB-435) was 28.4 nM. The TGI (MDA-MB-435) was 94.8 nM, the GI50 (SW-620 colon) was 66.4 nM and the TGI (SW-620 colon) was > 100000 nM. It also gave a GI50 (NCI/ADR-RES ovarian) of 57.4 nM, a TGI (NCI/ADR-RES ovarian) of 21400 nM and a GI50 (NCI-H460 lung) of 46.9 nM. For the same compound, the TGI (NCI-H460 lung) was 13300 nM, the GI50 (HOP-62 NSCLC) was 145 nM and the TGI (HOP-62 NSCLC) was > 100000 nM. The GI50 (HT29 colon) was 44.3 nM, the TGI (HT29 colon) was 14600 nM and the GI50 (TK-10 renal) was 26400 nM. For the same compound, the TGI (TK-10 renal) was > 100000 nM, the GI50 (COLO 205 colon) was 98.8 nM and the TGI (COLO 205 colon) was 2400 nM. It also gave a GI50 (SF-295 CNS) of 52 nM, a TGI (SF-295 CNS) of 25100 nM and a GI50 (OVCAR-3 ovarian) of 41.5 nM. The TGI (OVCAR-3 ovarian) was 15800 nM, the GI50 (HCC-2998 colon) was 375 nM and the TGI (HCC-2998 colon) was > 50100 nM. The GI50 (CAKI-1 renal) was 73.3 nM, the TGI (CAKI-1 renal) was > 100000 nM and the GI50 (NCI-H23 lung) was 358 nM. The TGI (NCI-H23 lung) was > 100000 nM, the GI50 (UACC-257 melanoma) was 11100 nM and the TGI (UACC-257 melanoma) was 52600 nM. For the same compound, the GI50 (SNB-19 CNS) was 102 nM, the TGI (SNB-19 CNS) was > 100000 nM and the GI50 (786-0 renal) was 108 nM. The TGI (786-0 renal) was > 41700 nM, the GI50 (LOX IMVI melanoma) was 69 nM and the TGI (LOX IMVI melanoma) was 14100 nM.
